Results: article PMC10886425, “Antibacterial Activity and Cytotoxicity Screening of Acyldepsipeptide-1 Analogues Conjugated to Silver/Indium/Sulphide Quantum Dots” (Antibiotics, 2024)
Converted amounts (≈) assume the structure as drawn. Like-named read-outs stand apart in the source and are kept apart here.

Assays:
[1] = Zeta potential (zetasizer); type: physicochemical; conditions: Malvern zetasizer; for Zeta Potential after Conjugation: after conjugation to gelatin-capped AgInS2 QDs; for Zeta Potential before Conjugation: unconjugated ADEP1 analogue or AgInS2 QDs alone
Description: (§1) A Spectro Xepos-05 energy-dispersive X-ray fluorescence (ED-XRF, Rigaku, TX, USA) instrument was used to determine the Ag, In, and S concentrations in the gelatin-capped AgInS2 QD powder. The core sizes of AgInS2 QDs and AgInS2-ADEP1 analogue conjugates were analyzed by the high-resolution transmission electron microscope (HR-TEM, JEOL, Tokyo, Japan). Fourier transform infrared spectroscopy (FTIR) spectra were recorded using a Perkin Elmer Spectrum Two UATR-FTIR spectrometer (PerkinElmer, Buckinghamshire, UK). The Hitachi F-2700FL spectrofluorophotometer (Hitachi, Tokyo, Japan) was used for the fluorescence measurements. Malvern system 4700 zetasizer (Malvern, Great Malvern, UK) together with a dynamic light scattering (DLS) technique were used to determine the zeta potential and particle hydrodynamic size of the AgInS2 QDs and AgInS2-ADEP1 analogue conjugates using.

[2] = Hydrodynamic size by dynamic light scattering (DLS); type: physicochemical; conditions: AgInS2 QDs alone or after conjugation with the named ADEP1 analogue
Description: as §1

[3] = test system: Bacillus subtilis ATCC 11774; conditions: B. subtilis; free ADEP1 analogues; cited from earlier work
From the text: Table 4 MIC and MBC values of the AgInS2 QD-ADEP1 analogue conjugates and ADEP1 analogues. | column: B. subtilis / MIC µM; B. subtilis / MBC µM

[4] = test system: Staphylococcus aureus ATCC 25,923; conditions: S. aureus; free ADEP1 analogues; cited from earlier work
From the text: Table 4 MIC and MBC values of the AgInS2 QD-ADEP1 analogue conjugates and ADEP1 analogues. | column: S. aureus / MIC µM; S. aureus / MBC µM

[5] = test system: Methicillin-resistant Staphylococcus aureus (MRSA) ATCC 43300; conditions: free ADEP1 analogues; cited from earlier work
From the text: Table 4 MIC and MBC values of the AgInS2 QD-ADEP1 analogue conjugates and ADEP1 analogues. | column: MRSA / MIC µM; MRSA / MBC µM

[6] = test system: Pseudomonas aeruginosa ATCC 15,442; conditions: P. aeruginosa; free ADEP1 analogues; cited from earlier work
From the text: Table 4 MIC and MBC values of the AgInS2 QD-ADEP1 analogue conjugates and ADEP1 analogues. | column: P. aeruginosa / MIC µM; P. aeruginosa / MBC µM

[7] = test system: Escherichia coli ATCC 33,876; conditions: E. coli; free ADEP1 analogues; cited from earlier work
From the text: Table 4 MIC and MBC values of the AgInS2 QD-ADEP1 analogue conjugates and ADEP1 analogues. | column: E. coli / MIC µM; E. coli / MBC µM

[8] = test system: Bacillus subtilis ATCC 11774; assay: Broth microdilution susceptibility assay (MIC) with plating on agar (MBC); type: cell-based; conditions: ATCC11774, B. subtilis, overnight 37 °C, conjugate concentration as loaded ADEP1 analogue
From the text: (§2) ADEP1 analogues (SC005-8) were synthesized in-house, as described by Cobongela et al., [11]. 1-Ethyl-3-(3-dimethylaminopropyl) carbodiimide (EDC), […] (sulfo-NHS), dimethyl sulfoxide (DMSO), thioglycolic acid (TGA), silver nitrate (AgNO3), sodium sulfide (Na2S·xH2O), gelatin, Dulbecco’s Modified Eagle Medium (DMEM), phosphate, trypsin, penicillin-streptomycin, fetal bovine serum (FBS), 3-(4,5-dimethylthiazol-2-yl)-5-(3-carboxymethoxyphenyl)-2-(4-sulfophenyl)-2H-tetrazolium (MTS dye), and trypan blue stain dye were all purchased from Sigma (St Louis, MO, USA). Bacillus subtilis American Type Culture Collection (ATCC) 11774, Staphylococcus aureus ATCC 25,923 and Methicillin-resistant Staphylococcus aureus (MRSA) ATCC 43300, and two Gram-negative (Escherichia coli ATCC 33,876 and Pseudomonas aeruginosa ATCC 15,442 were purchased from ATCC (Manassas, VA, USA). Human embryonic kidney 293 (HEK-293) cells were purchased from Cellonex (Randburg, Gauteng Province, South Africa).
(§3) The MIC and MBC of the AgInS2-ADEP1 analogue conjugates against B. subtilis, S. aureus, MRSA, P. aeruginosa and E. coli was determined using the broth microdilution susceptibility assay, following a previously described protocol. Briefly, overnight-grown bacterial cultures were adjusted to approximately 1.5 × 10^8 CFU/mL in a sterile Luria–Bertani broth. The concentration of ADEP1 on AgInS2-ADEP1 analogue conjugates was calculated based on the ADEP1 analogues calibration curve. AgInS2-ADEP1 analogue conjugates and ADEP1 analogues were diluted via 2-fold serial dilution with broth containing a final concentration range of 0.8–100 µM and 15.6–2000 µM, respectively. Gentamicin (concentration range between 0.007 and 6.7 mM) was used as a positive control for B. subtilis, S. aureus, MRSA, and P. aeruginosa, while ampicillin (concentration range between 0.18 and 6.7 mM) was used as a positive control for E. coli, and 5% DMSO was used as a negative control. The 96-well plates were then incubated overnight at 37 °C. […] The MBC was determined as the lowest concentration resulting in complete […].

[9] = test system: Methicillin-resistant Staphylococcus aureus (MRSA) ATCC 43300; assay: as above; type: cell-based; conditions: overnight 37 °C, conjugate concentration as loaded ADEP1 analogue
From the text: as §2, §3

[10] = test system: Pseudomonas aeruginosa ATCC 15,442; assay: as above; type: cell-based; conditions: ATCC15, P. aeruginosa, overnight 37 °C, conjugate concentration as loaded ADEP1 analogue
From the text: as §2, §3

[11] = test system: Staphylococcus aureus ATCC 25,923; assay: as above; type: cell-based; conditions: ATCC25, S. aureus, overnight 37 °C, conjugate concentration as loaded ADEP1 analogue
From the text: as §2, §3

[12] = test system: Escherichia coli ATCC 33,876; assay: as above; type: cell-based; conditions: ATCC33, E. coli, overnight 37 °C, conjugate concentration as loaded ADEP1 analogue
From the text: as §2, §3

[13] = MIC wells plated on Luria-Bertani agar
[14] = Luria-Bertani broth, ~1.5 × 10^8 CFU/mL

| Compound | Zeta Potential after Conjugation [1] [mV] | Zeta Potential before Conjugation [1] [mV] | Hydrodynamic Diameter [2] [nm] | MBC [3] [µM] | MIC [3] [µM] | MBC [4] [µM] | MIC [4] [µM] | MBC [5] [µM] | MIC [5] [µM] | MBC [6] [µM] | MIC [6] [µM] | MBC [7] [µM] | MIC [7] [µM] | also measured |
| --- | --- | --- | --- | --- | --- | --- | --- | --- | --- | --- | --- | --- | --- | --- |
| Palmitic acid-FCPAAPC; L-form amino acids (disulfide) [SC008, Disulphide bond cyclized ADEP1 analogue, Palmitic acid-FCPAAPC, L-form amino acids] | 1.39 ± 0.09 | −6.9 ± 1.5 | 50.3 ± 1.6 | 125 | 125 | 125 | 63 | 500 | 250 | 250 | 125 | 750 | 500 |  |
| Adamantane-FCPAAPC; D-form amino acids (disulfide) [SC006, Disulphide bond cyclized ADEP1 analogue, Adamantane-FCPAAPC, D-form amino acids] | 1.38 ± 0.06 | −3.8 ± 1.1 | 44.2 ± 1.4 | 250 | 250 | 125 | 63 | 250 | 250 | 250 | 125 | 750 | 500 |  |
| Adamantane-FCPAAPC; L-form amino acids (disulfide) [SC007, Disulphide bond cyclized ADEP1 analogue, Adamantane-FCPAAPC, L-form amino acids] | 1.00 ± 0.15 | −3.9 ± 0.8 | 44.4 ± 0.7 | 125 | 125 | 125 | 63 | 500 | 250 | 250 | 125 | 750 | 500 |  |
| CNC(C)C1CCC(N)C(OC2C(N)CC(N)C(OC3OCC(C)(O)C(NC)C3O)C2O)O1 (centres unmarked) [Gentamicin] |  |  |  |  |  |  |  |  |  |  |  |  |  | MIC ([8]; Luria-Bertani broth, ~1.5 × 10^8 CFU/mL, no visible growth): 26.1 µM (≈ 12.5 µg/mL); MBC [8, 13]: 52.3 µM (≈ 25 µg/mL); MIC [9, 14]: 26.2 µM (≈ 12.5 µg/mL); MBC [9, 13]: 52.4 µM (≈ 25 µg/mL); MIC [10, 14]: 419 µM (≈ 200 µg/mL); MBC [10, 13]: 838 µM (≈ 400 µg/mL); MIC [11, 14]: 0.5 µM (≈ 0.239 µg/mL); MBC [11, 13]: 1 µM (≈ 0.478 µg/mL) |
| Palmitic acid-FCPAAPC; D-form amino acids (disulfide) [SC005, Disulphide bond cyclized ADEP1 analogue, Palmitic acid-FCPAAPC, D-form amino acids] | 1.46 ± 0.02 | −7.2 ± 1.6 | 49.6 ± 1.6 | 125 | 125 | 125 | 63 | 250 | 125 | 250 | 125 | 750 | 500 |  |
| CC1(C)S[C@@H]2[C@H](NC(=O)[C@H](N)c3ccccc3)C(=O)N2[C@H]1C(=O)O [Ampicillin] |  |  |  |  |  |  |  |  |  |  |  |  |  | MIC [12, 14]: 2860 µM (≈ 1000 µg/mL); MBC [12, 13]: 5720 µM (≈ 2000 µg/mL) |
